Test results taken from patent US20250152627A1, “COMPOSITIONS AND METHODS FOR ENHANCING IMMUNE CELL FUNCTION USING MODIFIED CELLS WITH GLYCOCALYX EDITING ENZYMES” (Cornell University, priority 2021, published 2025).

Experiments:
Type in all cases: cell-based
1E7 cells = experiment: Ring-SAIM glycocalyx material thickness, wild-type 1E7 cells; details: wild-type 1E7 cells, 1,000 ng/mL doxycycline induction; TD139 at 10 μm
Protocol: Silicon wafers with ˜1900 nm thermal oxide (Addison Engineering) were diced into 7 mm by 7 mm chips, and the oxide layer thickness for each chip was measured with a FilMetrics F50-EXR. Prior to use, the chips were then cleaned with 1:1 methanol and hydrochloric acid for 15 minutes, followed by 1 minutes in a plasma cleaner (Harrick Plasma, PDC-001). The chips were incubated with 4% (v/v) (3-mercaptopropyl)trimethoxysilane in absolute ethanol for 30 minutes at room temperature. After washing with absolute ethanol, the chips were subsequently incubated with 4 mM 4-maleimidobutyric acid N-hydroxysuccinimide ester in absolute ethanol for 30 minutes and rinsed with PBS. 50 μg/mL human plasma fibronectin in PBS was incubated with the functionalized chips overnight at 4° C. for conjugation. Cells were seeded onto the chips at 2×10^4 cm^−2 in full culture medium with varying doxycycline concentrations and incubated for 24 hours. Cells expressing different length of Muc1 were labelled with GFP nanobody conjugated to Alexa Fluor 647 in MCF10A growth media for 10 minutes at 37° C. Cells were labelled with MemGlow dye or CellBrite Steady 550 in serum-free, phenol red-free DMEM/F12 for 10 minutes at 37° C. Sample were then rinsed 3× in PBS, inverted into a 35 mm glass-bottom imaging dish containing imaging buffer (MemGlow dye or CellBrite dye: serum-free, phenol red-free DMEM/F12, Alexa Fluor 647-conjugated GFP nanobody: phenol red-free DMEM/F12 supplemented with 5% horse serum, 20 ng/mL EGF, […], 500 ng/mL hydrocortisone, 100 ng/mL cholera toxin and 1× penicillin/streptomycin) and imaged at 37° C. […]
(§1) Scanning angle interference microscopy (SAIM) was conducted on a custom circle-scanning microscope.^40 The core of the setup was an inverted fluorescence microscope (Ti-E, Nikon). […] Fluorescence emission was collected with a quad band filter cube and single band filters (TRF89901-EMv2, Chroma) mounted in a motorized filter wheel (Sutter). […]

[1] = tested on: 1E7 cells overexpressing GCNT1; experiment: Ring-SAIM glycocalyx material thickness, GCNT1 overexpressing 1E7 cells; details: 1E7 cells overexpressing GCNT1, treatment with recombinant galectin
Protocol: Silicon wafers with ˜1900 nm thermal oxide (Addison Engineering) were diced into 7 mm by 7 mm chips, and the oxide layer thickness for each chip was measured with a FilMetrics F50-EXR. Prior to use, the chips were then cleaned with 1:1 methanol and hydrochloric acid for 15 minutes, followed by 1 minutes in a plasma cleaner (Harrick Plasma, PDC-001). The chips were incubated with 4% (v/v) (3-mercaptopropyl)trimethoxysilane in absolute ethanol for 30 minutes at room temperature. After washing with absolute ethanol, the chips were subsequently incubated with 4 mM 4-maleimidobutyric acid N-hydroxysuccinimide ester in absolute ethanol for 30 minutes and rinsed with PBS. 50 μg/mL human plasma fibronectin in PBS was incubated with the functionalized chips overnight at 4° C. for conjugation. Cells were seeded onto the chips at 2×10^4 cm^−2 in full culture medium with varying doxycycline concentrations and incubated for 24 hours. […]
as §1

cell surface Muc1 = experiment: Fluorescence recovery after photobleaching (FRAP) of Muc1-GFP; details: 1E7 GCNT1 OE with 10 μM recombinant human galectin-1
Protocol: FRAP experiments were performed by using a Zeiss i880 confocal microscope with 63×N.A. 1.4 Oil immersion lens. Five pre-bleached images were firstly taken and photobleaching was performed with 488 nm laser for about 10 seconds to bleach a target area of 2.55 μm×2.55 μm. 1E7 clone (n=11) and 1E7 GCNT1 overexpression (n=10) were used to measure mobile fraction of Muc1-GFP. 10 μM recombinant human galectin-1 was incubated with 1E7 GCNT1 cells for 10 minutes at 37° C. (n=9). Intensity profiles were corrected by normalizing to the time-course decay of GFP signal in non-bleached area by using MATLAB code from Advanced Imaging Center (https://www.mathworks.com/matlabcentral/fileexchange/47327-frap-zip)

Row | Compound | change of the material thickness of the glycocalyx (1E7 cells) | decrease of glycocalyx thickness compared to untreated cells [1] [nm] | effect on mobility and mobile fraction of cell surface Muc1 (cell surface Muc1)
1 | recombinant galectin-1: recombinant human galectin-1 (LGALS1) expressed in E. coli | did not significantly change | 19.4 | does not significantly affect
2 | recombinant galectin-3: recombinant human galectin-3 (LGALS3) expressed in E. coli | did not significantly change | 9.5 | –
3 | OC[C@H]1O[C@@H](S[C@@H]2O[C@H](CO)[C@H](O)[C@H](n3cc(-c4cccc(F)c4)nn3)[C@H]2O)[C@H](O)[C@@H](n2cc(-c3cccc(F)c3)nn2)[C@H]1O [TD139] | did not significantly change | – | –
